This note sets out measurements from ChEMBL document CHEMBL1150940, “New melampolides from Schkuhria schkuhrioides” (1998).

Converted amounts (≈) assume the structure as drawn.

A short description of test [1]: Cytotoxicity against human UISO cells. It counts as functional. To be noted: read-out: ED50 (the source's name).
A short description of test [2]: Cytotoxicity against human COLON cells. In kind it is functional. As to conditions: read-out: ED50 (the source's name).

Take `C=C1C(=O)O[C@@H]2/C=C(\C)CC/C=C(/C=O)C[C@@H](O)[C@@H]12`: the results for the EC50 in test [1] and in test [2] were 1.82 µg/mL (≈ 6.94 µM) and 0.9 µg/mL (≈ 3.43 µM), respectively.
